From patent US20230139922A1, “BACITRACIN-ALGINATE OLIGOMER CONJUGATES” (AlgiPharma AS, priority 2016, published 2023)
Values after ≈ are worked out from the molar mass of the structure shown. Where two headings read alike, the source gives them in different places. Where a SMILES comes first, the peptide text is derived from it. Bridges are numbered along the chain shown (N, C = ends). [ ]: non-standard residue; d: D form. The star is where a group is joined. Ileψ(thiazoline)Cys = CC[C@H](C)[C@H](N)C1=N[C@H](C(=O)*)CS1; dOrn = NCCC[C@@H](N)C(=O)O

Assays:
Type in all cases: cell-based
[1] = tested on: V33; test: MIC, broth microdilution (CLSI 2012), isolate V33; conditions: Batch 1; MH broth, 16-20 hours
[2] = tested on: Gram negative species tested (Pseudomonas aeruginosa, Klebsiella pneumonia, Escherichia coli and Acinetobacter baumannii); test: Antimicrobial activity (MIC) against Gram negative species; conditions: summary in words
Description: (§1) The strains used for susceptibility testing include both culture collection strains and clinical isolates are recited below. Their known relevant genotypes and origin have been described by Khan et al. supra.
(§2) The MICs of alginate oligomers, bacitracin and alginate oligomer conjugates thereof were determined for isolates V2, V3, VS, V19, E68 and E75 using the broth microdilution method in accordance with standard guidelines (CLSI 2012). Test organisms were suspended in Mueller Hinton cation adjusted (MH) broth (100 μL, 1-5×10^4 CFU/mL) and incubated in 96-well microtitre plates in serial two-fold dilutions of the test compounds. The MIC was defined as the lowest concentration of test compound that produced no visible growth after 16-20 hours.

[3] = tested on: Staphylococcus aureus (Gram positive); test: Antimicrobial activity (MIC) against Gram positive species; conditions: summary in words
Description: as §1, §2

[4] = tested on: Acinetobacter baumannii
Description: as §1, §2

[5] = tested on: Escherichia coli
Description: as §1, §2

[6] = tested on: Pseudomonas aeruginosa (301), MDR-PSA isolate
Description: as §1, §2

[7] = tested on: Klebsiella pneumoniae
Description: as §1, §2

CC[C@H](C)[C@H](N)C1=N[C@H](C(=O)N[C@@H](CC(C)C)C(=O)N[C@H](CCC(=O)O)C(=O)N[C@H](C(=O)N[C@H]2CCCCNC(=O)[C@H](CC(N)=O)NC(=O)[C@@H](CC(=O)O)NC(=O)[C@H](Cc3cnc[nH]3)NC(=O)[C@@H](Cc3ccccc3)NC(=O)[C@H]([C@@H](C)CC)NC(=O)[C@@H](CCCN)NC2=O)[C@@H](C)CC)CS1 [Bacitracin, bacitracin] ({Ileψ(thiazoline)Cys}-L[dE]IK[dOrn]I[dF]H[dD]N; lactam 4-C) was tested, and the “MIC V33” value [1] was >128 µg/mL, the “antimicrobial activity against the Gram negative species tested” value [2] was “but not the Gram negative species tested” and the “antimicrobial activity against Staphylococcus aureus (Gram positive)” value [3] was “high antimicrobial activity”. The “MIC V19” value [4] was 640 µg/mL (≈ 450 µM), the “MIC V19” value ([4]; Batch 1, MH broth, 16-20 hours) was >128 µg/mL and the “MIC V5” value [5] was 640 µg/mL (≈ 450 µM). For the same compound, the “MIC V5” value ([5]; Batch 1, MH broth, 16-20 hours) was >128 µg/mL, the “MIC V2” value ([6]; 301), MDR-PSA isolate) was >8192 µg/mL and the “MIC V2” value ([6]; Batch 1, MH broth, 16-20 hours) was >128 µg/mL. For the same compound, the “MIC V3” value [7] was >8192 µg/mL and the “MIC V3” value ([7]; Batch 1, MH broth, 16-20 hours) was >128 µg/mL.
